Common to all, as to experiment: Competitive cysteine profiling, probe competition (Table 2B)
What all share (type): binding

One assay concerns the target T1, Q9UM13 (Homo sapiens, UniProt Q9UM13).
T1 construct: Cells were resuspended in cold PBS on ice and sonicated with a probe sonicator to achieve lysis; endogenous in cells
From the text: (§1) The following 96-well sample prep protocol was used for sample preparation.

For another assay, the target named is T2, Q9H765 (Homo sapiens, UniProt Q9H765).
T2 construct: 200 μL of lysate containing 5 mg/ml proteome was treated with 2 μL of 100× compound stock; endogenous in cells
T2 sequence (Q9H765 1-288): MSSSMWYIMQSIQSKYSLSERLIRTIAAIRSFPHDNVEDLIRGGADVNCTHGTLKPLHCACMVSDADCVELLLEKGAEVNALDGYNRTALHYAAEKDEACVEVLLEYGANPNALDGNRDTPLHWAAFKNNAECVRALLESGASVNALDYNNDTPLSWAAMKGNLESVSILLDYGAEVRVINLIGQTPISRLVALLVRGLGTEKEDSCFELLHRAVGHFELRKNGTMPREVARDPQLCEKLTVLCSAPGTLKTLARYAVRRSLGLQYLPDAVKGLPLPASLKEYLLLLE
Excerpt: as §1

Another assay has as its target T3, Q86VP6 (Homo sapiens, UniProt Q86VP6).
T3 construct: 200 μL of lysate containing 5 mg/ml proteome was treated with 2 μL of 100× compound stock; endogenous in cells
T3 sequence (Q86VP6 1-1230): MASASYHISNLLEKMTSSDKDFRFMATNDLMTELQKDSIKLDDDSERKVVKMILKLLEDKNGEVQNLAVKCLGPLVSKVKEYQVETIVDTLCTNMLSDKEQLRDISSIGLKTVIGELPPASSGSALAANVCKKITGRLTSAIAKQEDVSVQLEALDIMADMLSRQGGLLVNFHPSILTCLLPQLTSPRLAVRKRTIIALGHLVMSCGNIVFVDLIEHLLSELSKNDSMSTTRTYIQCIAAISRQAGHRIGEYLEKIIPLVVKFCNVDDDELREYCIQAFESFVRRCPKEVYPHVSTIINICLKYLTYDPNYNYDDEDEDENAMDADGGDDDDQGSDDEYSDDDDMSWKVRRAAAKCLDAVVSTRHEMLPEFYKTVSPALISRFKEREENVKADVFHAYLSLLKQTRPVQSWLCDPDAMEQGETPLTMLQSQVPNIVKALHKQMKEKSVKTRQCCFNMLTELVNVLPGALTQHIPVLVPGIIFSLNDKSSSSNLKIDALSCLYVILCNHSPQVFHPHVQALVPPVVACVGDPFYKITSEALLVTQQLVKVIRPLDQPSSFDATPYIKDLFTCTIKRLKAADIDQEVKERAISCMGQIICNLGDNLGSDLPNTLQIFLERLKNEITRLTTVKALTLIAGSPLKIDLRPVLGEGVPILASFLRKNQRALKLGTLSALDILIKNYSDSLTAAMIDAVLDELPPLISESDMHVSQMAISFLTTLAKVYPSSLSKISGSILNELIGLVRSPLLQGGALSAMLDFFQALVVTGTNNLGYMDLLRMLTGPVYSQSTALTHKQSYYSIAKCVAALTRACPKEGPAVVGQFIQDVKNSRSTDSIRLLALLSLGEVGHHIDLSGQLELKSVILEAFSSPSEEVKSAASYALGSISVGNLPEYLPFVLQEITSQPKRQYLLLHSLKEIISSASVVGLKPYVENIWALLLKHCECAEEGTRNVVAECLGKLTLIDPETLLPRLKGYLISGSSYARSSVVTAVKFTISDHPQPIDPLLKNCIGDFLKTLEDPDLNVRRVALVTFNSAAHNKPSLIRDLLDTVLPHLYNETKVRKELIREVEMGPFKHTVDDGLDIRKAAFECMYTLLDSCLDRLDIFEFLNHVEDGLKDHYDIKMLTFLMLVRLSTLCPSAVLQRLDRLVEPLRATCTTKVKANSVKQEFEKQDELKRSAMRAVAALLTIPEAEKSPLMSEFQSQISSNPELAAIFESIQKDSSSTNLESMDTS
Excerpt: as §1

For a further assay, the target named is T4, Q96C12 (Homo sapiens, UniProt Q96C12).
T4 construct: Cells were resuspended in cold PBS on ice and sonicated with a probe sonicator to achieve lysis; endogenous in cells
T4 sequence (Q96C12 1-935): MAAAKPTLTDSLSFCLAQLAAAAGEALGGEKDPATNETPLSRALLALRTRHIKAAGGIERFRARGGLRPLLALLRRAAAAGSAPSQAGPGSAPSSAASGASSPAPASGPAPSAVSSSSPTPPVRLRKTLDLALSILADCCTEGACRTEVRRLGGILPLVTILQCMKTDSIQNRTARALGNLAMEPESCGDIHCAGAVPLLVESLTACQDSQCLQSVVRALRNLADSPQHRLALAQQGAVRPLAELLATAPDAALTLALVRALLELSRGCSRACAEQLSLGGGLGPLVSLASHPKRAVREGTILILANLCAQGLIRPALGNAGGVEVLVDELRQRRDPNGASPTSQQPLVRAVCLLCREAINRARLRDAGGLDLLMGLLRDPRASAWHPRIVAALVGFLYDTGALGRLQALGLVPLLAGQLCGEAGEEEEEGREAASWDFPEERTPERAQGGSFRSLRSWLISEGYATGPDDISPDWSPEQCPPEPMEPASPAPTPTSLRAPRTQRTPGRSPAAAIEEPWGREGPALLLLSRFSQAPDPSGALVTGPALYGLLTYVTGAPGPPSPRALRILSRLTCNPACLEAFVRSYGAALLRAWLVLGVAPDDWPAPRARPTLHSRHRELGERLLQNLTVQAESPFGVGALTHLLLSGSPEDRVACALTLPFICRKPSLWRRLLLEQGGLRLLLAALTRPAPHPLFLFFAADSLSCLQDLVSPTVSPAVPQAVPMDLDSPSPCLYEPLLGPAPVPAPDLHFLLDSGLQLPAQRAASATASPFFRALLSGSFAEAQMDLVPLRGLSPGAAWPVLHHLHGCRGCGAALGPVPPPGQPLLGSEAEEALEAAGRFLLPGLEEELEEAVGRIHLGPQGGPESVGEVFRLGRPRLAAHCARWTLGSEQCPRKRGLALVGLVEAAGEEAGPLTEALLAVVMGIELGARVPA
Excerpt: as §1

In another assay the target is T5, Q9UKV5 (Homo sapiens, UniProt Q9UKV5).
T5 construct: Cells were resuspended in cold PBS on ice and sonicated with a probe sonicator to achieve lysis; endogenous in cells
T5 sequence (Q9UKV5 whole entry): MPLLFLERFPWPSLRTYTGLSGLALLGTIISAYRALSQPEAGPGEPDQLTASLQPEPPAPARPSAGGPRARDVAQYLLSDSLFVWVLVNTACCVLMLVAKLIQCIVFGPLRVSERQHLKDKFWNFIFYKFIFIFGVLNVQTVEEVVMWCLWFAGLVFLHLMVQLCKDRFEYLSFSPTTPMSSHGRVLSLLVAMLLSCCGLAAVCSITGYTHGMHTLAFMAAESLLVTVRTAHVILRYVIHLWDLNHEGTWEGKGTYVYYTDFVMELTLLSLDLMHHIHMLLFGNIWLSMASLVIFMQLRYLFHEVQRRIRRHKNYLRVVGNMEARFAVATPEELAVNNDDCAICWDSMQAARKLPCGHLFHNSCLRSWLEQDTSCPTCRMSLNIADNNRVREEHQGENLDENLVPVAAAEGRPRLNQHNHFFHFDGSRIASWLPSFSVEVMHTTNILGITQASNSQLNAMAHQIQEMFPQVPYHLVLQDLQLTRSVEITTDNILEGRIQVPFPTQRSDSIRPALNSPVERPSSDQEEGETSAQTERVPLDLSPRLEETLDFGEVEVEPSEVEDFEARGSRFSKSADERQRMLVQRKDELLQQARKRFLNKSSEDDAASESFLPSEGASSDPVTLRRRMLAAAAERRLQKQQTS
Excerpt: as §1

The next assay concerns the target T6, Q9UJX5 (Homo sapiens, UniProt Q9UJX5).
T6 construct: Cells were resuspended in cold PBS on ice and sonicated with a probe sonicator to achieve lysis; endogenous in cells
Excerpt: as §1

[1] abbreviates: 100 uM, read-out: KB02_100 uM_percent_inhibition.
[2] abbreviates: 500 uM, read-out: KB02_500 uM_percent_inhibition.
[3] abbreviates: read-out: KB02_100 uM_percent_inhibition.
Setting [4] is: 100 uM, read-out: KB05_100 uM_percent_inhibition.
Where [5] appears, read: 500 uM, read-out: KB05_500 uM_percent_inhibition.
[6] abbreviates: read-out: KB05_100 uM_percent_inhibition.

Read-outs that look alike come from different tables or passages of the source.

T6 sequence (Q9UJX5 whole entry): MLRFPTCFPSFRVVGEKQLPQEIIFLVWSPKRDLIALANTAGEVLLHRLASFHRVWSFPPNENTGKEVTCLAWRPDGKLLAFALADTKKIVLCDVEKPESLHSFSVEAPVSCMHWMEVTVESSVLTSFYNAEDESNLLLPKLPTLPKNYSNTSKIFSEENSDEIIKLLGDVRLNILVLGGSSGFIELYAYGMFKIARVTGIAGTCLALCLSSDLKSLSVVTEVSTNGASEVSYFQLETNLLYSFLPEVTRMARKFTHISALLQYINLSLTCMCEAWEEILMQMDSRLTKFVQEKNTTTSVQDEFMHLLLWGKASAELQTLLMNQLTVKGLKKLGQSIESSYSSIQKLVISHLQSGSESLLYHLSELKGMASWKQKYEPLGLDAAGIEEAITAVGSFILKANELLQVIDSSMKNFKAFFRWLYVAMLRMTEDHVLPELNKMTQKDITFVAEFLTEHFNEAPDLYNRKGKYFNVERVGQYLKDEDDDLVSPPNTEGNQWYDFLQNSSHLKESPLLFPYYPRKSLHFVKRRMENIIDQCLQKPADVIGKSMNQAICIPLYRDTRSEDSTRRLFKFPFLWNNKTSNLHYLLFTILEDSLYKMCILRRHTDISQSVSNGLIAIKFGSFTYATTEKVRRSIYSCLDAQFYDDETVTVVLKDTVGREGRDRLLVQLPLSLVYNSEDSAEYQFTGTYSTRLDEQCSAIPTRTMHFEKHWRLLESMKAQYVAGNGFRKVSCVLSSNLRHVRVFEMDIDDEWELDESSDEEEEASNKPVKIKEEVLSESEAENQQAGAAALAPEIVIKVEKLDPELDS
T1 sequence (Q9UM13 whole entry): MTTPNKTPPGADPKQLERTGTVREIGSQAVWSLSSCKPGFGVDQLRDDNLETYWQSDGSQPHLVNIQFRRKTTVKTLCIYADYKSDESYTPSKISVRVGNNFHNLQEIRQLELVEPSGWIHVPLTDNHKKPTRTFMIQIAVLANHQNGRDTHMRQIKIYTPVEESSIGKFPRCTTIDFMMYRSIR

`COc1ccc2c(c1)CCCN2C(=O)CCl` [KB02]: the inhibition at 100 µM was 1% at Q9UM13 (setting [1]); 19% at Q9H765 (setting [1]); 47% on Q86VP6 (setting [3]); 62% on Q96C12 (setting [3]); 4% at Q9UKV5 (setting [3]). Besides, the inhibition at 500 µM came out at 53% at Q9UM13 (setting [2]), 54% at Q9H765 (setting [2]), 19% at Q9UKV5 (setting [2]) and 7% on Q9UJX5 (setting [2]). For the same molecule, the “KB02_100 uM_percent_inhibition” value on Q86VP6 (100 uM) is given as 27%.

Regarding `C=CC(=O)N(c1ccccc1)c1ccc(Br)cc1` [KB05], the inhibition at 100 µM on Q9UM13 (setting [4]) was 18%; on Q86VP6 (setting [6]), 4%; at Q96C12 (setting [6]), 23%; on Q9UKV5 (setting [6]), 5%; at Q9UJX5 (setting [4]), 6%. The inhibition at 500 µM came to 62% at Q9UM13 (setting [5]), 37% at Q9H765 (setting [5]), 18% at Q9UKV5 (setting [5]) and 20% at Q9UJX5 (setting [5]). The “KB05_100 uM_percent_inhibition” value at Q86VP6 (100 uM) is 7%.

For the molecule `O=C(CCl)Nc1cc(C(F)(F)F)cc(C(F)(F)F)c1` [KBO3], the figures for the “KB03_100 uM_percent_inhibition” value on Q9UM13 (100 uM), on Q86VP6 (100 uM) and at Q96C12 (100 uM) were 11%, 46% and 40%, respectively. Also, the “KB03_500 uM_percent_inhibition” value at Q9UM13 (500 uM) was found to be 37%; at Q9H765 (500 uM), 40%; on Q9UKV5 (500 uM), 48%; at Q9UJX5 (500 uM) it was 29%.
